Experiments:
DDR1 = biological target: T1, DDR1 (Homo sapiens, UniProt Q08345); assay: LanthaScreen Europium Kinase Binding assay, DDR1; conditions: 5 nM DDR1, 20 nM Kinase Tracer 178, 1 h at rt; Ki from IC50 by Cheng-Prusoff; read-out: Ki DDR1
T1 construct: purchased Carna Biosciences
Protocol: (§1) DDR1 and DDR2 binding assays were performed using Life Technologies LanthaScreen™ Europium Kinase Binding assay. […] IC50 values were determined in GraphPad Prism 7.0 software, using 4 parameter model: log (inhibitor) vs. response. IC50 values were converted in Ki using the Cheng-Prusoff equation (Ki-IC50/(1+ [Tracer]/Kd).

DDR2 = biological target: T2, DDR2 (Homo sapiens, UniProt Q16832); assay: LanthaScreen Europium Kinase Binding assay, DDR2; conditions: 5 nM DDR2, 10 nM Kinase Tracer 178, 1 h at rt; Ki from IC50 by Cheng-Prusoff; read-out: Ki DDR2
T2 construct: purchased Life Technologies
T2 sequence (Q16832 22-855): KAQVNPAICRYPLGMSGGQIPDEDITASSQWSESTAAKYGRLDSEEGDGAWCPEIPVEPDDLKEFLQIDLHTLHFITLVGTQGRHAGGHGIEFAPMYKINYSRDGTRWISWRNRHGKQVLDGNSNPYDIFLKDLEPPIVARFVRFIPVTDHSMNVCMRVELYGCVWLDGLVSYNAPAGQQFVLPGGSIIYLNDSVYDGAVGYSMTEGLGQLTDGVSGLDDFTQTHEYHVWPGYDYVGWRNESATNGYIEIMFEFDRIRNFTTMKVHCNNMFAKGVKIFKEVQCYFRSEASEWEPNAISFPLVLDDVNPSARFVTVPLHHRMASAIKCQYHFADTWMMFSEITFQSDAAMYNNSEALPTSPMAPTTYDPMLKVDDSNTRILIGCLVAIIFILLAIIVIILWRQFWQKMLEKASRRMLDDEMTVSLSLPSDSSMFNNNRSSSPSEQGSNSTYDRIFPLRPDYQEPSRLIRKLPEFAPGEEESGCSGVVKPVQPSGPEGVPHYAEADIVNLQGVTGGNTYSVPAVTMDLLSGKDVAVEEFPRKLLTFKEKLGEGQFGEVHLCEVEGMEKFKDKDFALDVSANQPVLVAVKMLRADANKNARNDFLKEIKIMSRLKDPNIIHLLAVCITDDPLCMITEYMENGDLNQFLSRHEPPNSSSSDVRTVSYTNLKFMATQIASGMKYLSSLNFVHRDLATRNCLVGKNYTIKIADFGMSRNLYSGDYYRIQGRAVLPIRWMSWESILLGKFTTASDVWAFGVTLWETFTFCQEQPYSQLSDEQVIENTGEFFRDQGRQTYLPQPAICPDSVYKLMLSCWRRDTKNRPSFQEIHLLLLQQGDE
Protocol: as §1

T1 sequence (Q08345 19-913): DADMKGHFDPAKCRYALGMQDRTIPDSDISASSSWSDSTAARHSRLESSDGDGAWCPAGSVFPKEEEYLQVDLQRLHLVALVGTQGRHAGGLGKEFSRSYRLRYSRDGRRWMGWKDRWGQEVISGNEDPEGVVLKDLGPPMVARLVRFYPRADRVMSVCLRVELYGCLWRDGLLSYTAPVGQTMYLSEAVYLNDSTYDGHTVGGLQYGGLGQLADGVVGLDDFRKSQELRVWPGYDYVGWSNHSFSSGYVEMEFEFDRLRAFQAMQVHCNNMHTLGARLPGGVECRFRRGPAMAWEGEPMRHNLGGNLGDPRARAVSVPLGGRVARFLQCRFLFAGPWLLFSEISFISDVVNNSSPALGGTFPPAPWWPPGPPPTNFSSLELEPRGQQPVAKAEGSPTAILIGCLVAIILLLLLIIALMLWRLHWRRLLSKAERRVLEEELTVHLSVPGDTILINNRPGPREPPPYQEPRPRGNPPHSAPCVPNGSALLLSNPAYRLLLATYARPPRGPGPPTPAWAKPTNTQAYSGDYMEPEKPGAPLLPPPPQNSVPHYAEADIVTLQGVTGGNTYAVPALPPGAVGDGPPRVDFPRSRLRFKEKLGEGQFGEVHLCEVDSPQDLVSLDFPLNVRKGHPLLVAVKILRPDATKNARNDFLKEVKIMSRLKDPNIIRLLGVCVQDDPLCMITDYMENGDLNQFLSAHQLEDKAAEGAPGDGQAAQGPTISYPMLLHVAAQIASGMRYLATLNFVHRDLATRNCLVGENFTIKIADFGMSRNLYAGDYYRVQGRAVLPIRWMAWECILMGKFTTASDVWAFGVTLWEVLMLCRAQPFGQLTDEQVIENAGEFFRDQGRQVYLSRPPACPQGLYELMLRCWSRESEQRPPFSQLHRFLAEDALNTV

Row | Ki (DDR1) | Ki (DDR2) | Structure (SMILES)
1 | < 5 nM | 5 to 25 nM | Cn1ccn2ncc(C(=O)N3CC4(CC(N(C(=O)Nc5cccc(C(F)(F)F)c5)C5CC5)C4)C3)c12 [Example 187, 1-cyclopropyl-1-(2-(1-methyl-1H-imidazo[1,2-b]pyrazole-7-carbonyl)-2-azaspiro[3.3]heptan-6-yl)-3-(3-(trifluoromethyl)phenyl)urea]
2 | < 5 nM | 5 to 25 nM | Cc1ccc(OC(F)(F)F)cc1NC(=O)N(C)C1CC2(C1)CN(C(=O)c1ccnc3[nH]ncc13)C2 [Example 188, 1-(2-(1H-pyrazolo[3,4-b]pyridine-4-carbonyl)-2-azaspiro[3.3]heptan-6-yl)-1-methyl-3-(2-methyl-5-(trifluoromethoxy)phenyl)urea]
3 | 5 to 25 nM | 5 to 25 nM | CN(C(=O)Nc1cc(OC(F)(F)F)ccn1)C1CC2(C1)CN(C(=O)c1ccnc3[nH]ncc13)C2 [Example 189, 1-(2-(1H-pyrazolo[3,4-b]pyridine-4-carbonyl)-2-azaspiro[3.3]heptan-6-yl)-1-methyl-3-(4-(trifluoromethoxy)pyridin-2-yl)urea]
4 | 5 to 25 nM | 25 to 100 nM | CN(C(=O)Nc1cc(OC(F)(F)F)ccn1)C1CC2(C1)CN(C(=O)c1cnn3ccncc13)C2 [Example 190, 1-methyl-1-(2-(pyrazolo[1,5-a]pyrazine-3-carbonyl)-2-azaspiro[3.3]heptan-6-yl)-3-(4-(trifluoromethoxy)pyridin-2-yl)urea]
5 | < 5 nM | 5 to 25 nM | CC1(NC(=O)Nc2cccc(C(F)(F)F)c2)CC2(CN(C(=O)c3ncnc4ccsc34)C2)C1 [Example 191]
6 | 25 to 100 nM | 25 to 100 nM | Cn1cc(N2CCOCC2)n2ncc(C(=O)N3CC4(CC(NC(=O)Nc5cccc(C(F)(F)F)c5)C4)C3)c12 [Example 192, 1-(2-(1-methyl-3-morpholino-1H-imidazo[1,2-b]pyrazole-7-carbonyl)-2-azaspiro[3.3]heptan-6-yl)-3-(3-(trifluoromethyl)phenyl)urea]
7 | < 5 nM | 5 to 25 nM | Cc1cc(C(F)(F)F)cc(NC(=O)N(C)C2CC3(C2)CN(C(=O)c2cnn4ccn(C)c24)C3)c1F [Example 193, 3-(2-fluoro-3-methyl-5-(trifluoromethyl)phenyl)-1-methyl-1-(2-(1-methyl-1H-imidazo[1,2-b]pyrazole-7-carbonyl)-2-azaspiro[3.3]heptan-6-yl)urea]
8 | < 5 nM | 5 to 25 nM | CSCCn1ccn2ncc(C(=O)N3CC4(CC(NC(=O)Nc5cccc(C(F)(F)F)c5)C4)C3)c12 [Example 194, 1-(2-(1-(2-(methylthio)ethyl)-1H-imidazo[1,2-b]pyrazole-7-carbonyl)-2-azaspiro[3.3]heptan-6-yl)-3-(3-(trifluoromethyl)phenyl)urea]
9 | < 5 nM | 5 to 25 nM | CN(C(=O)Nc1cccc(C(F)(F)F)c1)C1CC2(C1)CN(C(=O)c1cnn3ccn(CCF)c13)C2 [Example 195, 1-(2-(1-(2-fluoroethyl)-1H-imidazo[1,2-b]pyrazole-7-carbonyl)-2-azaspiro[3.3]heptan-6-yl)-1-methyl-3-(3-(trifluoromethyl)phenyl)urea]
10 | < 5 nM | 5 to 25 nM | CSCn1ccn2ncc(C(=O)N3CC4(CC(NC(=O)Nc5cccc(C(F)(F)F)c5)C4)C3)c12 [Example 196, 1-(2-(1-((methylthio)methyl)-1H-imidazo[1,2-b]pyrazole-7-carbonyl)-2-azaspiro[3.3]heptan-6-yl)-3-(3-(trifluoromethyl)phenyl)urea]
11 | < 5 nM | 5 to 25 nM | CN(C(=O)Nc1cncc(Br)c1)C1CC2(C1)CN(C(=O)c1cnn3ccn(C)c13)C2 [Example 197, 3-(5-bromopyridin-3-yl)-1-methyl-1-(2-(1-methyl-1H-imidazo[1,2-b]pyrazole-7-carbonyl)-2-azaspiro[3.3]heptan-6-yl)urea]
12 | < 5 nM | < 5 nM | CN(C(=O)Nc1cccc(C2(C(F)(F)F)CC2)c1)C1CC2(C1)CN(C(=O)c1cnn3ccn(C)c13)C2 [Example 198, 1-methyl-1-(2-(1-methyl-1H-imidazo[1,2-b]pyrazole-7-carbonyl)-2-azaspiro[3.3]heptan-6-yl)-3-(3-(1-(trifluoromethyl)cyclopropyl)phenyl)urea]
13 | < 5 nM | 5 to 25 nM | CN(C(=O)Nc1cc(C(C)(C)C(F)(F)F)on1)C1CC2(C1)CN(C(=O)c1cnn3ccn(C)c13)C2 [Example 199, 1-methyl-1-(2-(1-methyl-1H-imidazo[1,2-b]pyrazole-7-carbonyl)-2-azaspiro[3.3]heptan-6-yl)-3-(5-(1,1,1-trifluoro-2-methylpropan-2-yl)isoxazol-3-yl)urea]
14 | < 5 nM | 5 to 25 nM | CN(C(=O)Nc1cc(Br)ccn1)C1CC2(C1)CN(C(=O)c1cnn3ccn(C)c13)C2 [Example 200, 3-(4-bromopyridin-2-yl)-1-methyl-1-(2-(1-methyl-1H-imidazo[1,2-b]pyrazole-7-carbonyl)-2-azaspiro[3.3]heptan-6-yl)urea]
15 | < 5 nM | 5 to 25 nM | Cc1ccc(OC(F)(F)F)cc1NC(=O)N(C)C1CC2(C1)CN(C(=O)c1ncnc3[nH]ccc13)C2 [Example 201, 1-(2-(7H-pyrrolo[2,3-d]pyrimidine-4-carbonyl)-2-azaspiro[3.3]heptan-6-yl)-1-methyl-3-(2-methyl-5-(trifluoromethoxy)phenyl)urea]
16 | < 5 nM | 25 to 100 nM | COCCn1ccn2ncc(C(=O)N3CC4(CC(N(C)C(=O)Nc5cc(OC(F)(F)F)ccn5)C4)C3)c12 [Example 202, 1-(2-(1-(2-methoxyethyl)-1H-imidazo[1,2-b]pyrazole-7-carbonyl)-2-azaspiro[3.3]heptan-6-yl)-1-methyl-3-(4-(trifluoromethoxy)pyridin-2-yl)urea]
17 | < 5 nM | 5 to 25 nM | COCCn1ccn2ncc(C(=O)N3CC4(CC(N(C)C(=O)Nc5cccc(C(F)(F)F)c5)C4)C3)c12 [Example 203, 1-(2-(1-(2-methoxyethyl)-1H-imidazo[1,2-b]pyrazole-7-carbonyl)-2-azaspiro[3.3]heptan-6-yl)-1-methyl-3-(3-(trifluoromethyl)phenyl)urea]
18 | < 5 nM | 5 to 25 nM | CN(C(=O)Nc1cncc(OC(F)(F)F)c1)C1CC2(C1)CN(C(=O)c1ncnc3[nH]ccc13)C2 [Example 204, 1-(2-(7H-pyrrolo[2,3-d]pyrimidine-4-carbonyl)-2-azaspiro[3.3]heptan-6-yl)-1-methyl-3-(5-(trifluoromethoxy)pyridin-3-yl)urea]
19 | < 5 nM | 5 to 25 nM | CN(C(=O)Nc1cc(OC(F)(F)F)ccn1)C1CC2(C1)CN(C(=O)c1ncnc3[nH]ccc13)C2 [Example 205, 1-(2-(7H-pyrrolo[2,3-d]pyrimidine-4-carbonyl)-2-azaspiro[3.3]heptan-6-yl)-1-methyl-3-(4-(trifluoromethoxy)pyridin-2-yl)urea]
20 | < 5 nM | 5 to 25 nM | CN(C(=O)Nc1cncc(C(F)(F)F)c1)C1CC2(C1)CN(C(=O)c1ncnc3[nH]ccc13)C2 [Example 206, 1-(2-(7H-pyrrolo[2,3-d]pyrimidine-4-carbonyl)-2-azaspiro[3.3]heptan-6-yl)-1-methyl-3-(5-(trifluoromethyl)pyridin-3-yl)urea]
21 | < 5 nM | 5 to 25 nM | CN(C(=O)Nc1cncc(SC(F)(F)F)c1)C1CC2(C1)CN(C(=O)c1cnn3ccn(C)c13)C2 [Example 207, 1-methyl-1-(2-(1-methyl-1H-imidazo[1,2-b]pyrazole-7-carbonyl)-2-azaspiro[3.3]heptan-6-yl)-3-(5-((trifluoromethyl)thio)pyridin-3-yl)urea]

From US20260285855A1, “HETEROARYL DERIVATIVES AS DDRS INHIBITORS” (CHIESI FARMACEUTICI S.P.A., priority 2023, published 2026)
